# Experimental data taken from US8952024B2, “Herbicidal pyrimidone derivatives” (E I du Pont de Nemours and Company, priority 2009, dated 2015).
# Assays:
# Test in all cases: Test B pre-/postemergence plant response
# Type in all cases: in vivo
# [1] = system: ragweed (common ragweed, Ambrosia elatior)
# How it was run: (§1)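 Plants treated either at seeding (loam/sand soil) or postemergence at 2 to 18 cm height, using a surfactant-containing non-phytotoxic solvent formulation. Evaluation was visual after 13 to 15 days, 0 to 100 scale relative to controls.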
# [2] = system: bermudagrass (Cynodon dactylon)
# How it was run: as §1
# wild oat (Avena fatua) = system: wild oat (Avena fatua)
# How it was run: as §1
# [3] = system: cocklebur (Xanthium strumarium)
# How it was run: as §1
# kochia (Kochia scoparia) = system: kochia (Kochia scoparia)
# How it was run: as §1
# [4] = system: downy bromegrass (Bromus tectorum)
# How it was run: as §1
# [5] = system: blackgrass (Alopecurus myosuroides)
# How it was run: as §1
# [6] = system: pigweed (Amaranthus retroflexus)
# How it was run: as §1
# soybean (Glycine max) = system: soybean (Glycine max)
# How it was run: as §1
# [7] = system: yellow nutsedge (Cyperus esculentus)
# How it was run: as §1
# [8] = system: velvetleaf (Abutilon theophrasti)
# How it was run: as §1
# corn (Zea mays) = system: corn (Zea mays)
# How it was run: as §1
# [9] = system: Surinam grass (Brachiaria decumbens)
# How it was run: as §1
# [10] = system: lambsquarters (Chenopodium album)
# How it was run: as §1
# [11] = system: large crabgrass (Digitaria sanguinalis)
# How it was run: as §1
# [12] = system: Italian ryegrass (Lolium multiflorum)
# How it was run: as §1
# [13] = system: green foxtail (Setaria viridis)
# How it was run: as §1
# [14] = 31 g ai/ha, postemergence, scale 0 to 100, 0 is no effect, 100 is complete control
# [15] = 62 g ai/ha, postemergence, 0 is no effect, 100 is complete control, 13 to 15 days
# [16] = Postemergence, 125 g ai/ha, visual rating after 13 to 15 days, scale 0 (no effect) to 100 (complete control)
# [17] = Postemergence, 250 g ai/ha, scale 0 to 100 (0 no effect, 100 complete control)
# [18] = Preemergence, 31 g ai/ha, scale 0 to 100 (0 no effect, 100 complete control)
# [19] = Preemergence, 62 g ai/ha, scale 0 to 100, 0 no effect, 100 complete control
# [20] = Preemergence, 125 g ai/ha, scale 0 to 100, 0 no effect, 100 complete control
# [21] = 250 g ai/ha, Preemergence, 0 to 100 scale
smiles,measurement,setting,value
CCCc1ncc(C(=O)C2=C(O)CCCC2=O)c(=O)n1CCC [Compound 72],"Plant response rating, Ragweed",[1]; [14],75
same,Ragweed plant response rating (0 to 100 scale),[1]; [15],80
same,"Plant response rating, Ragweed",[1]; [16],90
same,"Plant response rating, Ragweed",[1]; [17],95
same,"Plant response rating, Ragweed",[1]; [18],55
same,"Plant response rating, Ragweed",[1]; [19],70
same,"Plant response rating, Ragweed",[1]; [20],80
same,"Plant response rating, Bermudagrass",[2]; [14],75
same,Bermudagrass plant response rating (0 to 100 scale),[2]; [15],80
same,"Plant response rating, Bermudagrass",[2]; [21],100
same,"Plant response rating, Bermudagrass",[2]; [16],85
same,"Plant response rating, Bermudagrass",[2]; [17],85
same,"Plant response rating, Bermudagrass",[2]; [18],95
same,"Plant response rating, Bermudagrass",[2]; [19],98
same,"Plant response rating, Bermudagrass",[2]; [20],98
same,"Plant response rating, Oat, Wild",wild oat (Avena fatua); [14],0
same,"Plant response rating, Oat, Wild",wild oat (Avena fatua); [16],30
same,"Plant response rating, Oat, Wild",wild oat (Avena fatua); [17],40
same,"Plant response rating, Oat, Wild",wild oat (Avena fatua); [18],0
same,"Plant response rating, Oat, Wild",wild oat (Avena fatua); [19],0
same,"Plant response rating, Oat, Wild",wild oat (Avena fatua); [20],0
same,"Plant response rating, Cocklebur",[3]; [14],75
same,Cocklebur plant response rating (0 to 100 scale),[3]; [15],80
same,"Plant response rating, Cocklebur",[3]; [21],80
same,"Plant response rating, Cocklebur",[3]; [16],90
same,"Plant response rating, Cocklebur",[3]; [17],95
same,"Plant response rating, Cocklebur",[3]; [18],10
same,"Plant response rating, Cocklebur",[3]; [19],50
same,"Plant response rating, Cocklebur",[3]; [20],70
same,"Plant response rating, Kochia",kochia (Kochia scoparia); [14],75
same,Kochia plant response rating (0 to 100 scale),kochia (Kochia scoparia); [15],85
same,"Plant response rating, Kochia",kochia (Kochia scoparia); [21],85
same,"Plant response rating, Kochia",kochia (Kochia scoparia); [16],90
same,"Plant response rating, Kochia",kochia (Kochia scoparia); [17],90
same,"Plant response rating, Kochia",kochia (Kochia scoparia); [18],45
same,"Plant response rating, Kochia",kochia (Kochia scoparia); [19],75
same,"Plant response rating, Kochia",kochia (Kochia scoparia); [20],85
same,"Plant response rating, Bromegrass, Downy",[4]; [14],0
same,"Bromegrass, Downy plant response rating (0 to 100 scale)",[4]; [15],0
same,"Plant response rating, Bromegrass, Downy",[4]; [21],0
same,"Plant response rating, Bromegrass, Downy",[4]; [16],0
same,"Plant response rating, Bromegrass, Downy",[4]; [17],20
same,"Plant response rating, Bromegrass, Downy",[4]; [18],0
same,"Plant response rating, Bromegrass, Downy",[4]; [19],0
same,"Plant response rating, Bromegrass, Downy",[4]; [20],0
same,"Plant response rating, Blackgrass",[5]; [14],0
same,Blackgrass plant response rating (0 to 100 scale),[5]; [15],0
same,"Plant response rating, Blackgrass",[5]; [21],5
same,"Plant response rating, Blackgrass",[5]; [16],0
same,"Plant response rating, Blackgrass",[5]; [17],0
same,"Plant response rating, Blackgrass",[5]; [18],0
same,"Plant response rating, Blackgrass",[5]; [19],0
same,"Plant response rating, Blackgrass",[5]; [20],0
same,"Plant response rating, Pigweed",[6]; [14],80
same,Pigweed plant response rating (0 to 100 scale),[6]; [15],100
same,"Plant response rating, Pigweed",[6]; [16],100
same,"Plant response rating, Pigweed",[6]; [17],100
same,"Plant response rating, Pigweed",[6]; [18],98
same,"Plant response rating, Pigweed",[6]; [19],98
same,"Plant response rating, Pigweed",[6]; [20],100
same,"Plant response rating, Soybean",soybean (Glycine max); [14],80
same,Soybean plant response rating (0 to 100 scale),soybean (Glycine max); [15],80
same,"Plant response rating, Soybean",soybean (Glycine max); [16],85
same,"Plant response rating, Soybean",soybean (Glycine max); [17],95
same,"Plant response rating, Nutsedge, Yellow",[7]; [14],35
same,"Nutsedge, Yellow plant response rating (0 to 100 scale)",[7]; [15],65
same,"Plant response rating, Nutsedge, Yellow",[7]; [16],65
same,"Plant response rating, Nutsedge, Yellow",[7]; [17],75
same,"Plant response rating, Nutsedge, Yellow",[7]; [18],40
same,"Plant response rating, Nutsedge, Yellow",[7]; [19],70
same,"Plant response rating, Nutsedge, Yellow",[7]; [20],75
same,"Plant response rating, Velvetleaf",[8]; [14],98
same,Velvetleaf plant response rating (0 to 100 scale),[8]; [15],100
same,"Plant response rating, Velvetleaf",[8]; [16],100
same,"Plant response rating, Velvetleaf",[8]; [17],100
same,"Plant response rating, Velvetleaf",[8]; [18],98
same,"Plant response rating, Velvetleaf",[8]; [19],100
same,"Plant response rating, Velvetleaf",[8]; [20],100
same,"Plant response rating, Corn",corn (Zea mays); [14],0
same,Corn plant response rating (0 to 100 scale),corn (Zea mays); [15],0
same,"Plant response rating, Corn",corn (Zea mays); [21],0
same,"Plant response rating, Corn",corn (Zea mays); [16],5
same,"Plant response rating, Corn",corn (Zea mays); [17],10
same,"Plant response rating, Corn",corn (Zea mays); [18],0
same,"Plant response rating, Corn",corn (Zea mays); [19],0
same,"Plant response rating, Corn",corn (Zea mays); [20],0
same,"Plant response rating, Surinam Grass",[9]; [14],75
same,Surinam Grass plant response rating (0 to 100 scale),[9]; [15],80
same,"Plant response rating, Surinam Grass",[9]; [16],80
same,"Plant response rating, Surinam Grass",[9]; [17],100
same,"Plant response rating, Surinam Grass",[9]; [18],45
same,"Plant response rating, Surinam Grass",[9]; [19],75
same,"Plant response rating, Surinam Grass",[9]; [20],75
same,"Plant response rating, Lambsquarters",[10]; [14],90
same,Lambsquarters plant response rating (0 to 100 scale),[10]; [15],100
same,"Plant response rating, Lambsquarters",[10]; [21],100
same,"Plant response rating, Lambsquarters",[10]; [16],100
same,"Plant response rating, Lambsquarters",[10]; [17],100
same,"Plant response rating, Lambsquarters",[10]; [18],98
same,"Plant response rating, Lambsquarters",[10]; [19],98
same,"Plant response rating, Lambsquarters",[10]; [20],98
same,"Plant response rating, Crabgrass, Large",[11]; [14],75
same,"Crabgrass, Large plant response rating (0 to 100 scale)",[11]; [15],80
same,"Plant response rating, Crabgrass, Large",[11]; [21],100
same,"Plant response rating, Crabgrass, Large",[11]; [16],85
same,"Plant response rating, Crabgrass, Large",[11]; [17],90
same,"Plant response rating, Crabgrass, Large",[11]; [18],95
same,"Plant response rating, Crabgrass, Large",[11]; [19],100
same,"Plant response rating, Crabgrass, Large",[11]; [20],100
same,"Plant response rating, Ryegrass, Italian",[12]; [14],0
same,"Ryegrass, Italian plant response rating (0 to 100 scale)",[12]; [15],0
same,"Plant response rating, Ryegrass, Italian",[12]; [16],10
same,"Plant response rating, Ryegrass, Italian",[12]; [17],30
same,"Plant response rating, Ryegrass, Italian",[12]; [18],0
same,"Plant response rating, Ryegrass, Italian",[12]; [19],0
same,"Plant response rating, Ryegrass, Italian",[12]; [20],0
same,"Plant response rating, Foxtail, Green",[13]; [14],10
same,"Foxtail, Green plant response rating (0 to 100 scale)",[13]; [15],70
same,"Plant response rating, Foxtail, Green",[13]; [21],90
same,"Plant response rating, Foxtail, Green",[13]; [16],90
same,"Plant response rating, Foxtail, Green",[13]; [17],90
same,"Plant response rating, Foxtail, Green",[13]; [18],0
same,"Plant response rating, Foxtail, Green",[13]; [19],0
same,"Plant response rating, Foxtail, Green",[13]; [20],50
